Key:
Assay in all cases: relative viability (nuclei count vs DMSO), 5 days (fraction); higher = more cells survive
Linifanib + Navitoclax = compound: Cc1ccc(F)c(NC(=O)Nc2ccc(-c3cccc4[nH]nc(N)c34)cc2)c1 [Linifanib] + CC1(C)CCC(c2ccc(Cl)cc2)=C(CN2CCN(c3ccc(C(=O)NS(=O)(=O)c4ccc(N[C@H](CCN5CCOCC5)CSc5ccccc5)c(S(=O)(=O)C(F)(F)F)c4)cc3)CC2)C1 [Navitoclax] (partner 0.5 µM)
Method in brief: (§1)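 Nuclei were stained with Hoechst during a one-step fixation (final 0.05% Triton X-100, 1% formaldehyde, 1 ug/ml Hoechst) carried out 5 days after dosing, then counted on 4× images. The cells, lung cancer lines in 1536-well plates, had been dosed by pin tool the day after seeding with one drug alone or a fixed anchor-drug dose plus five library-drug doses (not always all listed) in √10 steps. Relative viability is the nuclei count in treated wells divided by that in vehicle wells, and each value is the median of duplicate plates.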

Linifanib + OSI-027 = compound: Cc1ccc(F)c(NC(=O)Nc2ccc(-c3cccc4[nH]nc(N)c34)cc2)c1 [Linifanib] + COc1cccc2cc(-c3nc([C@H]4CC[C@H](C(=O)O)CC4)n4ncnc(N)c34)[nH]c12 [OSI-027] (partner 0.5 µM)
Method in brief: as §1

Linifanib + Alpelisib = compound: Cc1ccc(F)c(NC(=O)Nc2ccc(-c3cccc4[nH]nc(N)c34)cc2)c1 [Linifanib] + Cc1nc(NC(=O)N2CCC[C@H]2C(N)=O)sc1-c1ccnc(C(C)(C)C(F)(F)F)c1 [Alpelisib] (partner 2 µM)
Method in brief: as §1

Linifanib + Pemetrexed = compound: Cc1ccc(F)c(NC(=O)Nc2ccc(-c3cccc4[nH]nc(N)c34)cc2)c1 [Linifanib] + Nc1nc2[nH]cc(CCc3ccc(C(=O)N[C@@H](CCC(=O)O)C(=O)O)cc3)c2c(=O)[nH]1 [Pemetrexed] (partner 0.2 µM)
Method in brief: as §1

Linifanib + Olaparib = compound: Cc1ccc(F)c(NC(=O)Nc2ccc(-c3cccc4[nH]nc(N)c34)cc2)c1 [Linifanib] + O=C(c1cc(Cc2n[nH]c(=O)c3ccccc23)ccc1F)N1CCN(C(=O)C2CC2)CC1 [Olaparib] (partner 8 µM)
Method in brief: as §1

Linifanib + Luminespib = compound: Cc1ccc(F)c(NC(=O)Nc2ccc(-c3cccc4[nH]nc(N)c34)cc2)c1 [Linifanib] + CCNC(=O)c1noc(-c2cc(C(C)C)c(O)cc2O)c1-c1ccc(CN2CCOCC2)cc1 [Luminespib] (partner 0.01 µM)
Method in brief: as §1

| Cell Line | relative viability (Linifanib + Navitoclax; first compound 0.03162 µM) | relative viability (Linifanib + Navitoclax; first compound 0.1 µM) | relative viability (Linifanib + Navitoclax; first compound 0.3162 µM) | relative viability (Linifanib + OSI-027; first compound 0.03162 µM) | relative viability (Linifanib + OSI-027; first compound 0.1 µM) | relative viability (Linifanib + OSI-027; first compound 0.3162 µM) | relative viability (Linifanib + Alpelisib; first compound 0.03162 µM) | relative viability (Linifanib + Alpelisib; first compound 0.1 µM) | relative viability (Linifanib + Alpelisib; first compound 0.3162 µM) | relative viability (Linifanib + Pemetrexed; first compound 0.03162 µM) | relative viability (Linifanib + Pemetrexed; first compound 0.1 µM) | relative viability (Linifanib + Pemetrexed; first compound 0.3162 µM) | relative viability (Linifanib + Olaparib; first compound 0.03162 µM) | relative viability (Linifanib + Olaparib; first compound 0.1 µM) | relative viability (Linifanib + Olaparib; first compound 0.3162 µM) | relative viability (Linifanib + Luminespib; first compound 0.03162 µM) | relative viability (Linifanib + Luminespib; first compound 0.1 µM) | relative viability (Linifanib + Luminespib; first compound 0.3162 µM) |
| --- | --- | --- | --- | --- | --- | --- | --- | --- | --- | --- | --- | --- | --- | --- | --- | --- | --- | --- |
| NCI-H3122 | 1.02 | 1.04 | 1.01 | 0.947 | 0.989 | 0.995 | 0.761 | 0.783 | 0.786 | 0.203 | 0.201 | 0.193 | 0.641 | 0.637 | 0.61 | 0.0911 | 0.0897 | 0.0958 |
| EPLC-272H | 1.09 | 1.09 | 0.962 | 0.26 | 0.327 | 0.29 | 0.75 | 1.02 | 0.909 | 0.332 | 0.358 | 0.339 | 0.728 | 1.05 | 0.722 | 0.405 | 0.392 | 0.419 |
| NCI-H1793 | 0.553 | 0.429 | 0.444 | 0.254 | 0.296 | 0.267 | 0.664 | 0.763 | 0.681 | 0.939 | 1.17 | 1.07 | 0.848 | 1.13 | 0.802 | 0.169 | 0.173 | 0.199 |
| COR-L 105 | 0.808 | 0.938 | 0.796 | 0.698 | 0.874 | 0.602 | 1 | 1.02 | 1.01 | 1.12 | 1.02 | 1.07 | 0.66 | 0.584 | 0.754 | 0.807 | 0.889 | 0.556 |
| LK-2 | 0.791 | 1.03 | 0.704 | 0.212 | 0.21 | 0.261 | 0.895 | 1.06 | 1.01 | 0.278 | 0.318 | 0.272 | 0.694 | 0.759 | 0.732 | 0.189 | 0.201 | 0.232 |
| NCI-H1792 | 0.692 | 0.621 | 0.639 | 0.526 | 0.701 | 0.663 | 0.631 | 0.738 | 0.776 | 1.03 | 1 | 0.724 | 0.337 | 0.532 | 0.375 | 0.331 | 0.353 | 0.464 |
| NCI-H2347 | 0.826 | 1.01 | 0.733 | 0.476 | 0.434 | 0.415 | 1.07 | 1.05 | 1.08 | 0.434 | 0.431 | 0.425 | 0.629 | 0.646 | 0.565 | 0.479 | 0.408 | 0.348 |
| LOU-NH91 | 0.656 | 0.753 | 0.594 | 0.697 | 0.796 | 0.709 | 0.686 | 0.771 | 0.704 | 0.416 | 0.372 | 0.364 | 0.909 | 0.956 | 0.869 | 0.394 | 0.324 | 0.319 |
| NCI-H1355 | 0.891 | 0.953 | 0.963 | 0.418 | 0.497 | 0.434 | 0.81 | 0.823 | 0.794 | 1.07 | 1.13 | 1.08 | 0.768 | 0.832 | 0.726 | 0.777 | 0.672 | 0.648 |
| NCI-H2085 | 1.04 | 1.12 | 1.11 | 0.842 | 0.733 | 0.758 | 0.923 | 1.13 | 0.916 | 0.907 | 0.942 | 0.917 | 0.727 | 0.803 | 0.739 | 0.4 | 0.481 | 0.384 |
| SK-MES-1 | 1.18 | 1.25 | 1.04 | 0.625 | 0.613 | 0.595 | 0.883 | 0.852 | 0.885 | 1 | 0.964 | 0.962 | 0.636 | 0.795 | 0.71 | 0.79 | 0.769 | 0.639 |
| SW 1573 | 1.03 | 1.28 | 0.897 | 0.648 | 0.665 | 0.625 | 0.609 | 0.914 | 0.657 | 0.857 | 0.879 | 0.777 | 0.463 | 0.498 | 0.505 | 0.162 | 0.26 | 0.253 |
| BEN | 0.069 | 0.203 | 0.0675 | 0.28 | 0.295 | 0.311 | 0.963 | 1.11 | 0.992 | 0.716 | 0.866 | 0.853 | 1.11 | 0.942 | 0.985 | 0.276 | 0.49 | 0.233 |
| EKVX | 0.973 | 1.15 | 0.868 | 0.756 | 0.707 | 0.712 | 0.9 | 1.14 | 0.831 | 0.388 | 0.413 | 0.399 | 0.953 | 0.868 | 0.914 | 0.838 | 0.962 | 0.854 |
| HARA | 1.16 | 1.12 | 1.05 | 0.569 | 0.571 | 0.498 | 0.864 | 0.983 | 0.756 | 0.258 | 0.261 | 0.306 | 0.855 | 0.837 | 0.745 | 1.12 | 0.651 | 0.707 |
| PC-14 | 0.975 | 0.91 | 0.947 | 0.844 | 1.08 | 0.762 | 0.907 | 0.958 | 0.88 | 0.145 | 0.137 | 0.129 | 0.353 | 0.231 | 0.256 | 0.201 | 0.197 | 0.147 |

From the supplement of paper PMC10307832
